Data set [1] is described as follows: Plasma stability (rabbit). Format: in vitro ADME. The note with it: 37° C., read-out: Plasma stability (rabbit) t ½. Here is the method: (§1) A 4 mM compound stock solution was prepared by dissolving the appropriate amount of compound in MeOH, then a […] was prepared by adding 2 μL aforementioned 4 mM stock solution in 78 μL DMSO. A 10 mM control stock solution was prepared by dissolving the appropriate amount of tetracaine in DMSO, then a 10 μM control working solution was prepared by diluting the stock in DMSO. A 1 mg/ml terfenadine mixed with 2 mg/mL tolbutamide stock solution was prepared by dissolving an appropriate amount of each in DMSO, then a 1 ng/mL terfenadine mixed with 2 ng/mL tolbutamide internal standard solution was prepared by diluting the stock solution in methanol:acetonitrile (1:1, v/v). Both stock and internal standard solutions were stored at 4° C. Whole blood was centrifuged (obtained from in life group or donors) at 4000 rpm at 4° C. for 15 min to obtain plasma. Plasma was stored at −80° C. for future use. Before use, plasma was pre-warmed at 37° C. in a water bath for 15 min (500 μL per compound or control). After warming, 5 μL compound or control was added into 495 μL plasma, then vortexed to mix. […] The MS detection was performed using a Sciex API 4000 Qtrap and 6500 Plus instrument, and each compound was analyzed by reverse phase HPLC.

Data set [2] has as its target T1, recombinant alpha-crystallin core domain (ACD) of cryAB protein (residues 68-153) (Homo sapiens, UniProt P02511).
T1 construct: alpha-crystallin core domain (ACD) of cryAB protein (residues 68-153)
T1 sequence (P02511 68-153): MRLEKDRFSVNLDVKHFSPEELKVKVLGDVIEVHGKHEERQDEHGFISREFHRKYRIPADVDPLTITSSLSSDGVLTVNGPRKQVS
Description: Differential scanning fluorimetry (DSF), protein thermal stability change. Format: binding. The note with it: SYPRO orange. Here is the method: 2.4 μL of 10 mM compound stocks in DMSO were added to the wells of a 96-well plate containing 51.6 μL of 7 μM recombinant alpha-crystallin core domain (ACD) of cryAB protein (residues 68-153) in DSF buffer (50 mM Tris-HCl, 100 mM NaCl, 0.5 mM ZnCl2, 0.5 mM MgCl2, 0.5 mM CaCl2, pH8.0), and subsequently 6 μL 10× SYPRO orange protein gel stain (Invitrogen) was added for a final volume of 60 μL per well. Each well was mixed, and then 10 μL was added in quadruplicates to a MicroAmp Optical 384-well reaction plate with barcode (ThermoFisher). The plate was sealed with a MicroAmp Optical adhesive film (ThermoFisher), centrifuged at 1,000×g for 2 min, and loaded into a QuantStudio 6 Flex real-time PCR system (Applied Biosystems). The DSF assay was performed by heating the plate from 30° C. to 80° C. with 0.5° C. increments per cycle over 100 cycles. Each cycle was held for 90 s after reaching the temperature, and the fluorescent signal (520 nm excitation/558 nm emission) was measured.
The data curve was fitted using a Boltzmann model (GraphPad Prism Version 7) for a fitting range from 25° C. to the temperature at which the fluorescence signal was highest plus 3-5° C. The Tm was determined to be the temperature at the midpoint between the highest and lowest fluorescent signals on the curve. Results of the assay for compounds 1.18, 1.21 and 1.25 are in the following table and FIG. 1.

Data set [3] is described as follows: Chemical stability in PBS buffer. Format: physicochemical. The method, then:
10 mM compound working solutions were made by adding 10 μL of a 50 mM DMSO stock solution in 40 μL methanol. To make 20 μM compound working solutions, 1 μL of a 10 mM stock solution is added to 499 μL of methanol. Internal standard and quenching solutions were prepared by dissolving 1 mg/mL of terfenadine or tolbutamide in appropriate amounts of DMSO. A quenching solution was prepared containing 25 ng/ml terfenadine plus 50 ng/ml tolbutamide by diluting both stock solutions together in a 1:1 mixture of methanol:acetonitrile. Phosphate buffered saline (PBS) solutions at pH5 and pH7 were prepared by adjusting the pH of stock PBS with concentrated hydrochloric acid. To tubes labeled with a pre-determined time point (0, 5, 15, 30, 60, 120 min) was added 2 μL of 20 μM compound working solution. In each tube, 38 μL of PBS buffer was added to the vial, vortexed, and incubated at 37° C. for the corresponding time. After incubation, 300 μL of the quenching solution containing internal standard was added to the tube and vortexed to mix. The sample was centrifuged at 4000 rpm for 15 min, and 100 μL of supernatant transferred to a 0.65 ml tube for LC/MS analysis. Each compound and timepoint was analyzed by reverse phase HPLC with MS detection performed using a Sciex API 4500 Qtrap.

Data set [4] in a line: Plasma stability (human). Format: in vitro ADME. The note with it: 37° C., read-out: Plasma stability (human) t ½. Here is the method:
as §1

The conditions of data set [5]: in water; cited from earlier work.
Data set [6] in a line: Solubility remark in amyloid disaggregation assay. Format: physicochemical. The conditions noted are these: assay solution, 5% DMSO. The method, then: The procedure used to evaluate disassembly of amyloids in ex vivo cataractous solutions was adapted from Chemerovski-Glikman et al., Scientific Reports 8, Article number: 9341 (2018). Nuclear and cortical lens tissue from human donors (92F, 96M) was homogenized in PBS with protease inhibitor for 60 seconds on ice. The protein concentration of the lysate was measured by Bicinchoninic Acid Assay (Pierce BCA Protein Assay Kit, ThermoFisher), and then the lysate was diluted to a total protein concentration of 0.075 mg/mL. Thioflavin T dye (Sigma-Aldrich) was added to a final concentration of 1 μM. […] After incubation with orbital shaking at 37° C., the fluorescence was read every two hours for 94 hours at an excitation wavelength of 440 nm and emission wavelength of 485 nm. Results of the assay for compounds 1.18, 1.21, 1.25 or control are in FIG. 3.

Where [7] appears, read: PBS pH 5, 37° C., read-out: Chem stability (t ½ @ pH = 5).
Where [8] appears, read: PBS pH 7, 37° C., read-out: Chem stability (t ½ @ pH = 7).

Read-outs that look alike come from different tables or passages of the source.

On to `C[C@H](CCCC(C)(C)O)[C@H]1CC[C@H]2[C@@H]3CC=C4C[C@@H](OC(=O)OCC[N+](C)(C)C)CC[C@]4(C)[C@H]3CC[C@]12C.[I-]` [Compound 1.25], for which the half-life at 0.1 µM in data set [1] and in data set [4] was > 8.33 h throughout. Moreover, the “Δ Tm (° C.) Mean (n = 2)” value in data set [2] was −1.8 °C. Besides, the half-life at 1 µM in data set [3] (setting [7]) and in data set [3] (setting [8]) was > 8.33 h throughout.

In the case of `C[C@H](CCCC(C)(C)O)[C@H]1CC[C@H]2[C@@H]3CC=C4C[C@@H](OC(=O)CC[C@H](N)C(=O)O)CC[C@]4(C)[C@H]3CC[C@]12C` [Compound 1.21], the “Δ Tm (° C.) Mean (n = 2)” value in data set [2] is −1.7 °C.

As to `CC(C)CCC[C@@H](C)[C@H]1CC[C@H]2[C@@H]3CC=C4C[C@@H](O)CC[C@]4(C)[C@H]3CC[C@]12C` [cholesterol], in data set [5], the aqueous solubility entry was “less than 0.5 mg/100 mL”.

Take `C[C@H](CCCC(C)(C)O)[C@H]1CC[C@H]2[C@@H]3CC=C4C[C@@H](OC(=O)CCC(=O)O)CC[C@]4(C)[C@H]3CC[C@]12C` [Compound 1.18]: the “solubility (in words)” value in data set [6] is recorded as “limited solubility”. Besides, the half-life at 0.1 µM in data set [1] and in data set [4] was > 8.33 h each time. Moreover, the “Δ Tm (° C.) Mean (n = 2)” value in data set [2] was −5.7 °C. The half-life at 1 µM in data set [3] (setting [7]) and in data set [3] (setting [8]) was > 8.33 h throughout.

Values taken from US20200276211A1, “COMPOUNDS FOR TREATING NEAR VISION DISORDERS” (VIEWPOINT THERAPEUTICS, INC., priority 2017, published 2020).
